Assay: Tissue, plasma and GI content pharmacokinetics of tacrolimus, oral vs intra-cecal ingestible device delivery
Assay type: in vivo, Yorkshire-Cross farm swine
Settings: swine; intra-cecally vs orally administered, 12 hours post-dose (FIG. 76)
Experimental: No further randomization procedure was employed.
Animals in Group 1 received an ingestible device containing 0.8 mL of vehicle solution (80% alcohol, 20% HCO-60). Animals in Group 2 received orally […] liquid formulation of tacrolimus at 4 mg/0.8 mL per animal (Prograf. 5 mg/mL). Animals in Group 3 received intra-cecally an ingestible device containing tacrolimus at 1 mg in 0.8 mL per ingestible device. Animals in Group 4 received intra-cecally an ingestible device containing tacrolimus at 2 mg in 0.8 mL per ingestible device. Animals in Group 5 received intra-cecally an ingestible device containing tacrolimus at 4 mg in 0.8 mL per ingestible device. […]
Approximately 200˜400 mg of rectal content were collected, if available, with a fecal swab (Copan Diagnostics Nylon Flocked Dry Swabs, 502CS01). The fecal swab was pre-weighed and weighed after collection in the collection tube (Sterile Tube and Cap No Media, PFPM913S), and the sample weight was recorded. […]
For tissue necropsy, small intestine fluid and cecal fluid were collected separately from all the animals into two separate square plastic bottles, and stored at −20° C. The length and diameter of the cecum and the colon was measured from one animal in each group and recorded for reference. […] All samples were weighed, and the tissue sample weights were recorded. […]

C=CC[C@@H]1/C=C(\C)C[C@H](C)C[C@H](OC)[C@H]2O[C@@](O)(C(=O)C(=O)N3CCCC[C@H]3C(=O)O[C@H](/C(C)=C/[C@@H]3CC[C@@H](O)[C@H](OC)C3)[C@H](C)[C@@H](O)CC1=O)[C@H](C)C[C@@H]2OC [tacrolimus, Tacrolimus]
mean concentration of tacrolimus in the cecum tissue: higher | mean concentration of tacrolimus in the proximate colon tissue: higher
